According to US4868114A, “Method for elevating glutathione levels” (Regents of the University of Minnesota, priority 1989, dated 1989):

Key:
[1] = system: rat hepatocytes; assay: Stimulation of glutathione (GSH) biosynthesis in isolated rat hepatocytes by L-cysteine prodrugs; format: cell-based; details: for [GSH] ± SE: control 35.4 ± 0.78
Method: (§1) Rat hepatocytes were isolated following the methods of P. O. Seglen, Exper. […] After final plating, the hepatocytes were maintained in culture for 24 hr prior to use. Only primary cultures were used throughout the studies. The hepatocytes were incubated with the cysteine prodrugs for a 4-hr period, and after removal of media by aspiration, the cells were rinsed with cold phosphate-buffered saline and deproteinized with 5% sulfosalicylic acid. […] For the inhibition studies with BSO, the cells were pre-exposed to BSO (0.20 mM) before treatment with the L-cysteine prodrugs.

[2] = system: rat hepatocytes; assay: Inhibitory effect of buthionine sulfoximine (BSO) on GSH elevation elicited by L-cysteine prodrugs in rat hepatocytes; format: cell-based; details: for [GSH] ± SE: rat hepatocytes pre-exposed to BSO 0.2 mM, 4 hr; for [GSH] Rel. to Controls: rat hepatocytes, BSO 0.2 mM, 240 min
Method: as §1

[3] = system: acetaminophen-induced hepatotoxicity; assay: Protection against acetaminophen-induced hepatotoxicity in mice; format: in vivo; details: prodrug 2.45 mmole/kg ip 30 min later; for Survival (48 hr) (%) / Survival (48 hr) (Number): LD90 acetaminophen 750 mg/kg ip; for Survival (48 hr) (Number): survivors/total; for Number of Animals with necrosis 0 / Number of Animals with necrosis 1+ / Number of Animals with necrosis 2+ / Number of Animals with necrosis 3+ / Number of Animals with necrosis 4+: LD90 acetaminophen ip, liver histology, Mitchell rating
Method: Compounds 1a through 1h were evaluated in a mouse model for their ability to protect against the hepatotoxic action of acetaminophen. The experimental protocol involved the administration of an LD90 dose of acetaminophen, followed 30 min. later by the prodrug as potential protective agent. Toxicity was assessed based on overall survival data at 48 hrs, as well as on histological criteria of hepatocellular damage using the rating system of J. R. Mitchell et al., J. Pharmacol. Exp. Ther., 187, 185 (1973).
The prodrugs of L-cysteine were examined for their ability to protect against acetaminophen-induced hepatotoxicity in mice essentially as described by H. T. Nagasawa et al., J. Med. Chem., 25, 489 (1982). Male Swiss-Webster mice (19 to 31 g) were fasted overnight but given free access to water. An LD90 dose of acetaminophen (750 mg/kg, 4.97 mmol/kg, ip) was then administered, followed 30 min later by a 2.45 mmole/kg ip dose of the L-cysteine prodrug. All injection solutions were freshly prepared in sterile water, except where solubility problems required the use of sterile 0.1N aqueous NaHCO3 or a slurry of the prodrug in 2% aqueous carboxymethylcellulose (CMC). The animals were then given food and water ad libitum and were observed over a 48-hr period.
Represenative sections from the central lobe of the liver were obtained from those animals found dead at 12, 24 and 48 hr. Survivors at 48 hr were sacrificed by cervical dislocation and the liver sections were similarly excised and sectioned. All specimens were fixed on 10% buffered formalin and in Form-a-Less (PMP, Inc., San Diego, CA) and stained with hematoxylin and eosin. The extent of hepatic necrosis was evaluated histologically by an investigator who had no knowledge of the experimental protocols or sample identity.

[4] = system: heptatotoxic dosages of acetaminophen; details: previous studies (Nagasawa 1984; Meister US 4,335,210); cited from earlier work
[5] = Hepatocyte, rat hepatocytes, prodrug 1.0 mM, 4 hr incubation, read-out: [GSH] Rel. to Controls
[6] = rat hepatocytes, prodrug 1.0 mM, 4 hr incubation

SMILES | fold induction at 1000 µM [1, 5] | [GSH] ± SE [1, 6] [nmol/10^6 cells] | [GSH] ± SE ([2]; prodrug 1.0 mM) [nmol/10^6 cells] | [GSH] Rel. to Controls ([2]; prodrug 1.0 mM) | Survival (48 hr) (%) [3] [%] | Survival (48 hr) (Number) [3] | Number of Animals with necrosis 0 [3] | Number of Animals with necrosis 1+ [3] | Number of Animals with necrosis 2+ [3] | Number of Animals with necrosis 3+ [3] | Number of Animals with necrosis 4+ [3] | protection of mice from hepatotoxic dosages of acetaminophen [4] | [GSH] Rel. to Controls [1, 6] | fold induction at 2500 µM ([1]; Rattus norvegicus, Hepatocyte, 4 h, read-out: [GSH] Rel. to Controls) | [GSH] ± SE ([1]; rat hepatocytes, 2.5 mM, 4 hr incubation) [nmol/10^6 cells] | raised GSH levels by ([1]; rat hepatocytes, 2.5 times the concentration of the thiazolidine prodrugs) [%] | [GSH] ± SE ([2]; 2.5 mM) [nmol/10^6 cells] | [GSH] Rel. to Controls ([2]; 2.5 mM)
O=C(O)[C@@H]1CSC([C@@H](O)[C@H](O)[C@H](O)CO)N1 (mixture of isomers) [AraCys, 2(R,S)-D-arabino-1',2',3',4'-Tetrahydroxybutylthiazolidine-4(R)-carboxylic Acid] | 1.2 | 42.9 ± 2.17 | 19.5 ± 3.75 | 0.6 | 40 | 4/10 | 0 | 1 | 2 | 0 | 7 |  |  |  |  |  |  | 
CC1N[C@H](C(=O)O)CS1 (stereo partly drawn) [2(R,S)-methylthiazolidine-4R-carboxylate] |  |  |  |  |  |  |  |  |  |  |  | can protect mice |  |  |  |  |  | 
CCCCCC1N[C@H](C(=O)O)CS1 (stereo partly drawn) [2(R,S)-n-pentyl] |  |  |  |  |  |  |  |  |  |  |  | can protect mice |  |  |  |  |  | 
CCCC1N[C@H](C(=O)O)CS1 (stereo partly drawn) [2(R,S)-n-propyl-] |  |  |  |  |  |  |  |  |  |  |  | can protect mice |  |  |  |  |  | 
O=C(O)[C@@H]1CSC([C@H](O)[C@@H](O)[C@@H](O)[C@H](O)CO)N1 (stereo partly drawn) [GalCys, 2(R,S)-D-galacto-1',2',3',4',5'-Pentahydroxypentylthiazolidine-4(R)-carboxylic Acid] | 1.6 | 58.0 ± 2.00 | 23.2 ± 2.56 | 0.7 | 60 | 6/10 | 1 | 3 | 2 | 0 | 4 |  |  |  |  |  |  | 
O=C(O)[C@@H]1CSC([C@H](O)[C@@H](O)[C@H](O)[C@H](O)CO)N1 (stereo partly drawn) [GlcCys, 2(R,S)-D-gluco-1',2',3',4',5'-Pentahydroxypentylthiazolidine-4(R)-carboxylic Acid] | 2.1 | 75.2 ± 2.15 | 25.4 ± 0.99 | 0.7 | 30 | 3/10 | 0 | 2 | 0 | 1 | 7 |  | over twice |  |  |  |  | 
O=C(O)[C@@H]1CSC([C@H](O)CO)N1 (stereo partly drawn) [GlycCys, 2(R,S)-D-glycero-1',2'-Dihydroxyethylthiazolidine-4(R)carboxylic Acid] | 1.3 | 46.1 ± 1.10 | 18.3 ± 6.41 | 0.5 | 30 | 3/10 | 0 | 0 | 1 | 2 | 7 |  |  |  |  |  |  | 
O=C1N[C@H](C(=O)O)CS1 [L-2-oxothiazolidine-4-carboxylate] |  |  |  |  |  |  |  |  |  |  |  | can protect mice |  |  |  |  |  | 
O=C(O)[C@@H]1CSC([C@@H](O)[C@@H](O)[C@H](O)CO)N1 (stereo partly drawn) [LyxCys, 2(R,S)-D-lyxo-1',2',3',4'-Tetrahydroxybutylthiazolidine-4(R)-carboxylic Acid] | 1.3 | 45.9 ± 1.95 | 22.4 ± 1.98 | 0.6 | 30 | 3/10 | 0 | 0 | 0 | 1 | 9 |  |  |  |  |  |  | 
O=C(O)[C@@H]1CSC([C@@H](O)[C@@H](O)[C@H](O)[C@H](O)CO)N1 (stereo partly drawn) [ManCys, 2(R,S)-D-manno-1',2',3',4',5'-Pentahydroxypentylthiazolidine-4(R)-carboxylic Acid] | 1.6 | 57.8 ± 0.87 | 18.9 ± 1.87 | 0.5 | 40 | 4/10 | 3 | 0 | 1 | 0 | 6 |  |  |  |  |  |  | 
CC(=O)N[C@@H](CS)C(=O)O [NAC, N-Acetyl-L-cysteine, reference compound] |  |  |  |  | 94 | 17/18 | 13 | 3 | 0 | 1 | 1 | can protect mice |  | 1.3 | 45.8 ± 1.27 | 30 | 25.5 ± 1.59 | 0.7
O=C(O)[C@@H]1CSC([C@H](O)[C@H](O)[C@H](O)CO)N1 (stereo partly drawn) [RibCys, 2(R,S)-D-ribo-1',2',3',4'-Tetrahydroxybutylthiazolidine-4(R)-carboxylic Acid] | 1.7 | 61.2 ± 1.52 | 16.2 ± 3.60 | 0.5 | 100 | 12/12 | 4 | 2 | 6 | 0 | 0 |  |  |  |  |  |  | 
O=C(O)[C@@H]1CSC([C@H](O)[C@@H](O)[C@H](O)CO)N1 (stereo partly drawn) [XylCys, 2(R,S)-D-xylo-1',2',3',4'-Tetrahydroxybutylthiazolidine-4(R)-carboxylic Acid] | 1.6 | 58.3 ± 0.99 | 22.6 ± 1.84 | 0.8 | 60 | 6/10 | 3 | 2 | 0 | 0 | 5 |  |  |  |  |  |  | 
